The target in data set [1] is C-X-C chemokine receptor type 4 (Homo sapiens) (UniProt P61073). Nature of the data set: Inhibition of CXCR4-mediated chemotaxis in human MDA-MB-231 cells assessed as inhibition of CXCL12alpha-induced cell invasion at 100 nM after 22 hrs by hematoxylin/eosin dye-based matrigel assay relative to control. Type of data set: functional.
Data set [2] relates to Mus musculus. Put plainly: Antiinflammatory activity in mouse assessed as inhibition of xylene-induced ear edema at 10 mg/kg, ip treated post 30 mins xylene treatment measured at 2 hrs post dose relative to control. Type of data set: functional.
The target of data set [3] is C-X-C chemokine receptor type 4 (Homo sapiens) (UniProt P61073). Nature of the data set: Inhibition of biotinylated TN14003 binding to CXCR4 in human MDA-MB-231 cells assessed as reduction in fluorescence preincubated for 10 mins followed by biotinylated-TN14003 addition measured after 30 mins by streptavidin-rhodamine staining based immunofluorescence microscopic analysis. Type of data set: cell-based.

Data set [4] has the same target. Nature of the data set: Potency index, ratio of AMD3100 EC to compound EC for inhibition of biotinylated TN14003 binding to CXCR4 in human MDA-MB-231 cells. The data set is classed as functional, cell-based.
A further data set has as its system MDA-MB-231. Nature of the data set: Cytotoxicity against human MDA-MB-231 cells assessed as inhibition of cell proliferation at 10 uM after 24 to 72 hrs by MTT assay. The settings on record: mda-mb-231, 10 µM. Type of data set: cell-based. A general note: Tetrazolium dyes change colour on reduction, which living cells bring about.
In data set [5] the test system is Mus musculus. Put plainly: Antiinflammatory activity in mouse assessed as inhibition of xylene-induced ear thickness at 10 mg/kg, ip treated post 30 mins xylene treatment measured at 2 hrs post dose by histological analysis. The data set is classed as functional, organism-based.
Data set [6] in a line: Half life in nude mouse plasma at 30 mg/kg, iv by HPLC analysis. The data set is classed as ADME, organism-based.
Data set [7] in a line: Stability in nude mouse plasma assessed as parent compound remaining at 30 mg/kg, iv after 1 hr by HPLC analysis. The data set is classed as ADME, organism-based. The settings on record: in vivo.
A further data set concerns MCF-10A. Nature of the data set: Antiproliferative activity in human MCF10A cells at 10 uM after 24 to 72 hrs by MTT assay. Type of data set: cell-based.
In data set [8] the test system is Mus musculus. Nature of the data set: Antiinflammatory activity in mouse assessed as inhibition of xylene-induced ear edema volume at 10 mg/kg, ip treated post 30 mins xylene treatment measured at 2 hrs post dose by histological analysis. The data set is classed as functional, organism-based.
Data set [9] has as its system CXCR4. Put plainly: Selectivity index, ratio of antiproliferative activity in human MDA-MB-231 cells to EC for inhibition of biotinylated TN14003 binding to CXCR4 in human MDA-MB-231 cells. Type of data set: toxicity, cell-based. As to conditions: probe biotinylated TN14003, read-out: Selectivity Index.
For data set [10], the system named is CXCR4. Put plainly: Selectivity index, ratio of antiproliferative activity in human MCF10A cells to EC for inhibition of biotinylated TN14003 binding to CXCR4 in human MDA-MB-231 cells. Type of data set: toxicity, cell-based. The settings on record: probe biotinylated TN14003, read-out: Selectivity Index.
For data set [11], the target named is C-X-C chemokine receptor type 4 (Homo sapiens) (UniProt P61073). Put plainly: Inhibition of CXCR4 in human MDA-MB-231 cells assessed as reduction in CXCR4/[…] signaling-mediated Akt Ser473 phosphorylation by Western blot analysis. Type of data set: functional, cell-based. On the technique in general: In western blotting, separated proteins are transferred to a membrane and probed.

A short description of data set [12]: Stability in nude mouse plasma assessed as parent compound remaining at 30 mg/kg, iv after 20 mins by HPLC analysis. As to conditions: read-out: Stability. The data set is classed as ADME, organism-based.
The nature of data set [13]: Stability in nude mouse plasma assessed as parent compound remaining at 30 mg/kg, iv after 50 mins by HPLC analysis. The data set is classed as ADME, organism-based. As to conditions: read-out: Stability.
Data set [14] has as its system Mus musculus. Put plainly: Antiinflammatory activity in mouse assessed as inhibition of xylene-induced increase in number of inflammatory cells in ear at 10 mg/kg, ip treated post 30 mins xylene treatment measured at 2 hrs post last dose by histological analysis. Type of data set: functional, organism-based.
Data set [15] is described as follows: Stability in nude mouse plasma assessed as parent compound remaining at 30 mg/kg, iv after 5 mins by HPLC analysis. The data set is classed as ADME, organism-based. The settings on record: read-out: Stability.

Molecules are shown by their SMILES. Calls of active or inactive are those of the source. No cut-off for these calls is given here.

Sequence of C-X-C chemokine receptor type 4 (Homo sapiens) (P61073 whole entry): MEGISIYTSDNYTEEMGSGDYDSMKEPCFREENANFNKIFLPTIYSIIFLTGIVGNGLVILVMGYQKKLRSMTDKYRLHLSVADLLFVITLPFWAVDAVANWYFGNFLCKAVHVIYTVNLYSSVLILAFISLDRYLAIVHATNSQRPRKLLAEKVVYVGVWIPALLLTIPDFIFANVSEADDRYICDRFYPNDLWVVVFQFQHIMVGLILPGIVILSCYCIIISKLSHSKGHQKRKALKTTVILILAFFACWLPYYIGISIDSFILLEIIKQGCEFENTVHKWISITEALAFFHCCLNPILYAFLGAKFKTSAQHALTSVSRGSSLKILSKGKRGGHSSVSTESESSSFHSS

Take `COc1cccc(C(=O)NCc2ccc(CNS(=O)(=O)c3ccc(C)cc3)cc2)c1`: in data set [1], the inhibition (in general, the change of the read-out against control, counted positive when it falls) is above 90%. Besides, in the data set with Mus musculus [2], the inhibition in vivo (as a rule, the share of the control response that was lost under treatment) at 10 mg/kg was 28%. In addition, the EC in data set [3] was 10 nM.

In the case of `Cc1ccc(S(=O)(=O)NCc2ccc(CNC(=O)c3ccccc3)cc2)cc1`, the EC in data set [3] was above 1000 nM.

As to `COc1ccccc1C(=O)NCc1ccc(CNS(=O)(=O)c2ccc(C)cc2)cc1`, the inhibition in data set [1] was above 90%. The inhibition result with Mus musculus [2] was “inactive”. In addition, the EC in [3] turned out to be 100 nM.

`O=C(NCc1ccc(CNS(=O)(=O)c2ccccc2)cc1)c1ccc(Cl)cc1`: in data set [1], the inhibition is below 50%. Also, the EC in data set [3] turned out to be 100 nM.

As to `Cc1cccc(C(=O)NCc2ccc(CNS(=O)(=O)c3ccccc3)cc2)c1`, the EC in data set [3] is 1000 nM.

Turning to `Cc1ccc(C(=O)NCc2ccc(CNS(=O)(=O)c3ccccc3)cc2)cc1`, the inhibition in data set [1] was below 50%. The EC in [3] stood at 100 nM.

Regarding `O=C(NCc1ccc(CNS(=O)(=O)c2ccccc2)cc1)c1cccnc1`, in data set [1], the inhibition is above 60%. The inhibition in vivo at 10 mg/kg in the data set on Mus musculus [2] was determined as 53%. Further, in data set [3], the EC came to 10 nM.

As for `O=C(NCc1ccc(CNS(=O)(=O)c2ccccc2)cc1)c1ccccc1F`, the EC in [3] is 1000 nM.

On to `COc1ccc(C(=O)NCc2ccc(CNS(=O)(=O)c3ccccc3)cc2)cc1`, for which the EC in data set [3] came to 1000 nM.

As for `O=C(NCc1ccc(CNS(=O)(=O)c2ccccc2)cc1)c1ccc(F)cc1`, the inhibition in data set [1] is above 60%. Moreover, the inhibition in vivo at 10 mg/kg in the data set on Mus musculus [2] stood at 40%. Moreover, the EC in data set [3] was determined as 100 nM.

In the case of `Cc1ccc(S(=O)(=O)NCc2ccc(CNC(=O)c3cccnc3)cc2)cc1`, in data set [3], the EC is above 1000 nM.

With `O=C(NCc1ccc(CNS(=O)(=O)c2ccccc2)cc1)c1ccccc1`, in data set [1], the inhibition was above 60%. Besides, the Ratio in data set [4] came out at 1000. The inhibition in vivo at 10 mg/kg in the data set on Mus musculus [2] was found to be 62%. Moreover, in [3], the EC worked out at 1 nM.

For the compound `O=C(NCc1ccc(CNS(=O)(=O)c2ccccc2)cc1)c1ccc([N+](=O)[O-])cc1`, the inhibition in [1] was found to be 55%. In data set [3], the EC was 100 nM.

In the case of `O=C(NCc1ccc(CNS(=O)(=O)c2ccccc2)cc1)c1cccc(F)c1`, the inhibition in data set [1] is above 60%. Moreover, the EC in [3] turned out to be 100 nM.

`Cc1ccccc1C(=O)NCc1ccc(CNS(=O)(=O)c2ccccc2)cc1`: in [1], the inhibition was above 90%. Besides, the Ratio in data set [4] came out at 1000. Moreover, the inhibition result in the data set with Mus musculus [2] is “inactive”. In addition, the EC in data set [3] is 1 nM.

Consider `Cc1ccc(S(=O)(=O)NCc2ccc(CNC(=O)c3ccc([N+](=O)[O-])cc3)cc2)cc1`, for which the inhibition in data set [1] turned out to be 55%. For the same compound, the EC in [3] was found to be 10 nM.

With `COc1cccc(C(=O)NCc2ccc(CNS(=O)(=O)c3ccccc3)cc2)c1`, the EC in [3] is above 1000 nM.

`Cc1ccc(S(=O)(=O)NCc2ccc(CNC(=O)c3ccccc3F)cc2)cc1`: the EC in data set [3] is 1000 nM.

Consider `Cc1ccc(S(=O)(=O)NCc2ccc(CNC(=O)c3cccc(C)c3)cc2)cc1`, for which, in [3], the EC was determined as 1000 nM.

For the compound `Cc1ccc(S(=O)(=O)NCc2ccc(CNC(=O)c3c(Cl)cc(Cl)cc3Cl)cc2)cc1`, the inhibition in [1] came out at 55%. In addition, the EC in [3] worked out at 10 nM.

Consider `O=C(NCc1ccc(CNS(=O)(=O)c2ccccc2)cc1)c1cccc(Cl)c1`, for which the EC in data set [3] was found to be 1000 nM.

For the compound `Cc1ccc(S(=O)(=O)NCc2ccc(CNC(=O)c3ccccc3Cl)cc2)cc1`, in data set [1], the inhibition was above 90%. Besides, the inhibition in vivo at 10 mg/kg in the data set with Mus musculus [2] came out at 26%. In addition, the EC in [3] was found to be 10 nM.

Turning to `O=C(NCc1ccc(CNS(=O)(=O)c2ccccc2)cc1)c1c(Cl)cc(Cl)cc1Cl`, the inhibition in data set [1] is above 60%. The inhibition result in the data set with Mus musculus [2] is “inactive”. The EC in data set [3] was 10 nM.

Consider `Cc1ccc(S(=O)(=O)NCc2ccc(CNC(=O)c3ccc(F)cc3)cc2)cc1`, for which the Activity entry with MDA-MB-231 and in the data set with MCF-10A was “Non-Toxic” each time. The inhibition entry in the data set with Mus musculus [5], in the data set with Mus musculus [8] and with Mus musculus [14] was “Active” in each case. Also, the half-life (commonly how long it takes for the measured level to halve) in [6] worked out at 40 min. Further, the inhibition was above 60% in data set [1] and “Dose-dependent effect” in data set [11]. For the same compound, the Stability entry in data set [7] was “Stable”. Further, the selectivity ratio with CXCR4 [9] and in the data set on CXCR4 [10] was 1000 throughout. Moreover, the inhibition in vivo at 10 mg/kg in the data set on Mus musculus [2] is 75%. Moreover, the remaining at 20 min in [12] is 65%. In addition, in data set [3], the EC amounted to 1 nM. For the same compound, the remaining at 50 min in data set [13] was 45%. In addition, in [15], the remaining at 5 min was 100%.

For the compound `Cc1ccc(S(=O)(=O)NCc2ccc(CNC(=O)c3ccncc3)cc2)cc1`, the inhibition in data set [1] amounted to 55%. Further, in [3], the EC was determined as 10 nM.

`COc1ccc(C(=O)NCc2ccc(CNS(=O)(=O)c3ccc(C)cc3)cc2)cc1`: the inhibition in [1] came out at 55%. Further, in [3], the EC came out at 100 nM.

As for `Cc1ccc(S(=O)(=O)NCc2ccc(CNC(=O)c3cccc(F)c3)cc2)cc1`, the inhibition in [1] was determined as 55%. The Ratio in data set [4] worked out at 1000. Also, in data set [3], the EC worked out at 1 nM.

Turning to `Cc1ccc(C(=O)NCc2ccc(CNS(=O)(=O)c3ccc(C)cc3)cc2)cc1`, the EC in [3] came out at 1000 nM.

`O=C(NCc1ccc(CNS(=O)(=O)c2ccccc2)cc1)c1ccccc1Cl`: the inhibition in data set [1] was above 60%. The inhibition entry in the data set on Mus musculus [2] was “inactive”. Moreover, in data set [3], the EC was determined as 10 nM.

For `Cc1ccc(S(=O)(=O)NCc2ccc(CNC(=O)c3cccc(Cl)c3)cc2)cc1`, the inhibition in data set [1] is above 60%. In addition, the inhibition in vivo at 10 mg/kg with Mus musculus [2] is 57%. In addition, in [3], the EC was determined as 100 nM.

As to `O=C(NCc1ccc(CNS(=O)(=O)c2ccccc2)cc1)c1ccncc1`, the inhibition in [1] was above 60%. Further, in the data set with Mus musculus [2], the inhibition in vivo at 10 mg/kg is 40%. Further, the EC in data set [3] stood at 10 nM.

For the compound `Cc1ccc(S(=O)(=O)NCc2ccc(CNC(=O)c3ccccc3C)cc2)cc1`, the inhibition in [1] is below 50%. Besides, in [3], the EC came out at 100 nM.

Regarding `Cc1ccc(S(=O)(=O)NCc2ccc(CNC(=O)c3ccc(Cl)cc3)cc2)cc1`, in data set [1], the inhibition was above 60%. Also, the inhibition in vivo at 10 mg/kg in the data set with Mus musculus [2] was 50%. Also, the EC in [3] amounted to 10 nM.

With `COc1ccccc1C(=O)NCc1ccc(CNS(=O)(=O)c2ccccc2)cc1`, in data set [1], the inhibition was above 90%. In addition, the Ratio in data set [4] amounted to 1000. In addition, in the data set with Mus musculus [2], the inhibition result was “inactive”. For the same compound, the EC in [3] is 1 nM.

For the origin of these results see ChEMBL document CHEMBL4138100, “Novel anti-inflammatory agents targeting CXCR4: Design, synthesis, biological evaluation and preliminary pharmacokinetic study” (Eur J Med Chem, 2017).
